Experimental data reported in patent publication US20210338694A1, “SOS1 ALLOSTERIC SITE TARGETING” (priority 2020, published 2021).

Each compound was assayed on oncogenic Kras (G12C) transformed pancreatic MIA-PaCa-2 cells (assay: Cell growth of treated cells). Conditions: Kras (G12C) MIA-PaCa-2 cells, FIGS. 3-5.
Format: cell-based
Method: FIGS. 3-5 show data from experiments in which oncogenic Kras (G12C) transformed pancreatic MIA-PaCa-2 cells were treated with NSC-70220, and an experiment in which wild-type Kras expressing pancreatic BxPC-3 ductal cells were treated with NSC-70220.

`O=[N+]([O-])c1ccccc1/C=C/C=C1c2ccccc2-c2ccccc21` [NSC-70220] was tested. Which inhibition of growth did it give?
Its inhibition of growth is “selectively inhibits growth”.

These compounds were tested on Mononuclear bone marrow cells harvested from Kras G12D/+ mice (assay: CellTiter-Glo Luminescent Cell Viability Assay (growth inhibitory assay)). Conditions: Mus musculus, 48 h, 40 μM compound, two days of incubation, percentage of cells still alive at the end of the experiment, read-out: 40 μM (% Residual Activity).
Format: cell-based
Method: Mononuclear bone marrow cells harvested from Kras G12D/+ mice were tested for proliferation in a CellTiter-Glo® Luminescent Cell Viability Assay by Promega (Madison, Wis.) carried out by following the instructions provided by the manufacturer in the presence of 40 μM of 176 selected test compounds. […] The structures of these active compounds are shown in Table 1, along with the percentage of residual activity after two days of incubation with 40 μM of the compound. The residual activity is the percentage of cells that were still alive at the end of the experiment.

For `O=C(NC(=S)NNC(=O)c1ccccc1O)c1ccc(-c2ccccc2)cc1` [Compound 390481], which activity at 40 µM is on record?
Its activity at 40 µM is 10%.

For `O=C(N/N=C/c1ccc(O)c(O)c1)c1ccc(-c2ccccc2)cc1` [Compound 377089], which activity at 40 µM is on record?
The activity at 40 µM was 6%.

With `O=C(N/N=C/c1ccc(O)c(Br)c1)c1cc(Br)ccc1O` [Compound 394392] as the compound, how does the activity at 40 µM read?
Its activity at 40 µM is 3%.

For `O=C(/C=C/c1ccc(/C=C/C(=O)c2ccc(O)cc2)cc1)c1ccc(O)cc1` [Compound 511128], which activity at 40 µM is on record?
The activity at 40 µM was 1%.

`O=C(N/N=C/C=C/c1ccc([N+](=O)[O-])o1)c1ccccc1O` [Compound 388883] was tested. Which activity at 40 µM did it give?
The activity at 40 µM was 1%.

With `COc1ccc(C=C2c3ccccc3-c3ccccc32)cc1` [Compound 262294] as the compound, how does the activity at 40 µM read?
The activity at 40 µM was 13%.

Which activity at 40 µM does the source give for `Cc1cc(C)c2oc(-c3ccc(C)c(/N=C/C=C/c4ccc(Br)c([N+](=O)[O-])c4)c3)nc2c1` [Compound 312987] here?
The activity at 40 µM was 8%.

With `O=C(/C=C/c1ccccc1[N+](=O)[O-])c1ccco1` [Compound 775432] as the compound, how does the activity at 40 µM read?
The activity at 40 µM was 0%.

How did the activity at 40 µM turn out when `O=C(N/N=C(/C=C/c1ccccc1)c1ccccc1)c1ccccc1O` [Compound 121366] was run?
Its activity at 40 µM is 12%.

With `O=C(NNC(=O)c1ccccc1C(=O)O)c1ccccc1O` [Compound 473089] as the compound, how does the activity at 40 µM read?
The activity at 40 µM was 13%.

Which activity at 40 µM does the source give for `O=C(Nc1ccccc1C(=O)O)c1ccc([N+](=O)[O-])cc1` [Compound 114395] here?
The activity at 40 µM was 16%.

With `O=C(C(=Cc1ccccc1[N+](=O)[O-])C(=O)c1ccccc1)c1ccccc1` [Compound 526470] as the compound, how does the activity at 40 µM read?
The activity at 40 µM was 15%.

With `C=CCc1ccc(/C=N/NC(=O)c2ccccc2O)cc1O` [Compound 290794] as the compound, how does the activity at 40 µM read?
The activity at 40 µM was 2%.

Which activity at 40 µM does the source give for `O=C(/C=C(\O)C(F)(F)/C(O)=C/C(=O)c1ccccc1)c1ccccc1` [Compound 387846] here?
Its activity at 40 µM is 9%.

For `O=C(NC(=S)Nc1ccccc1O)c1ccc(-c2ccccc2)cc1` [Compound 920300], which activity at 40 µM is on record?
The activity at 40 µM was 12%.

How did the activity at 40 µM turn out when `O=C(Nc1cc(Cl)ccc1O)c1ccc(Cl)c(C(=O)c2ccc(Cl)cc2)c1` [Compound 773778] was run?
Its activity at 40 µM is 8%.

For `O=C(N/N=C/c1ccc2ccccc2c1)c1ccccc1O` [Compound 393689], which activity at 40 µM is on record?
The activity at 40 µM was 11%.

How did the activity at 40 µM turn out when `O=[N+]([O-])c1ccc(C=C(c2nc3ccccc3s2)c2nc3ccccc3s2)cc1` [Compound 408776] was run?
The activity at 40 µM was 12%.

How did the activity at 40 µM turn out when `O=[N+]([O-])c1ccccc1/C=C/C=C1c2ccccc2-c2ccccc21` [NSC-70220] was run?
Its activity at 40 µM is 12 to 15%.

`O=C(NCc1ccccc1)/C(=C/C=C\c1ccccc1)NC(=O)c1ccccc1` [Compound 127987] was tested. Which activity at 40 µM did it give?
Its activity at 40 µM is 5%.

`O=C(N/N=C/c1ccc(OCc2ccccc2)cc1)c1cccc(F)c1` [Compound 377247] was tested. Which activity at 40 µM did it give?
Its activity at 40 µM is 11%.

What follows are compounds tested on ERK activation of oncogenic Kras (G12D) pancreatic cancer cells (assay: ERK activation by Western blotting of p-ERK, total ERK). Conditions: Western blot, FIGS. 2A and 2B.
Format: cell-based

Which “inhibition of ERK activation” value does the source give for `O=[N+]([O-])c1ccccc1/C=C/C=C1c2ccccc2-c2ccccc21` [NSC-70220] here?
Its value is “selectively inhibits ERK activation”.

These compounds were tested on Kras (G12D) transformed pancreatic cancer cells (4039) (assay: Cell growth in tissue culture over a four-day period). Conditions: 40 μM, Kras (G12D) cells 4039, FIG. 1.
Format: cell-based
Method: Kras (G12D) transformed pancreatic cancer cells (4039) and wild-type Kras expressing pancreatic cancer cells (4037) were each exposed to 40 μM of NSC-70220. Cell growth in the tissue culture was monitored by assays over a four-day period.

Which “inhibition of cell growth” value does the source give for `O=[N+]([O-])c1ccccc1/C=C/C=C1c2ccccc2-c2ccccc21` [NSC-70220] here?
Its value is “selectively inhibits”.
